Experimental data as given in patent publication US20120270819A1, “USE OF COMPOUNDS WITH SGLT-1/SGLT-2 INHIBITOR ACTIVITY FOR PRODUCING MEDICAMENTS FOR TREATMENT OF BONE DISEASE” (SANOFI, priority 2009, published 2012).
pIC50: −log10 of the molar value.

Biological target: T1, human sodium-dependent glucose transporter 2 (SGLT2, SLC5A2) (Homo sapiens, UniProt P31639)
T1 construct: Bases 21 to 2039 correspond to the complete coding region of human SGLT2; expressed in transfected cells; host or cells: CHO-TREx cells (Invitrogen), pcDNA4/TO vector, tetracycline-induced
T1 sequence (P31639 1-672): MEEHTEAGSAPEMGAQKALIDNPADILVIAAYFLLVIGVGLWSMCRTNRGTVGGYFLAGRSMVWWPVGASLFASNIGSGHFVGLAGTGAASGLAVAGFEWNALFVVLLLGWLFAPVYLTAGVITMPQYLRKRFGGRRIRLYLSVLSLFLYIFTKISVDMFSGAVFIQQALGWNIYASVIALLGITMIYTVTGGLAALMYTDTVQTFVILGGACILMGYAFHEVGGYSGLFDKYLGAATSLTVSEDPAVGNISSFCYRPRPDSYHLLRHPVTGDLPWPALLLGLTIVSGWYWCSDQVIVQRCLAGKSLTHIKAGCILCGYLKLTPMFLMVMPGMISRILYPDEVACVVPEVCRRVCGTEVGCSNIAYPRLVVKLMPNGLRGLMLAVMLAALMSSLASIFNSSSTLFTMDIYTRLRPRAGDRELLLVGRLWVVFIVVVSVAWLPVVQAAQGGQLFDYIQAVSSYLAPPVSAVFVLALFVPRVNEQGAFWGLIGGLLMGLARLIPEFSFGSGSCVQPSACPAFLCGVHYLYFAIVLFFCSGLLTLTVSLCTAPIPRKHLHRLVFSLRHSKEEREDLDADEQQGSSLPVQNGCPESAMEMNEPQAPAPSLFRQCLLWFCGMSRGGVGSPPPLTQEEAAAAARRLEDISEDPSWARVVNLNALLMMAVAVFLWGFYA
Experiment: Inhibition of methyl-D-glucopyranoside uptake in CHO-TRex-hSGLT2 cells
Type: cell-based
Conditions: recombinant SGLT2; read-out: IC50 SGLT 2
Source text: Inhibition of the Transport Activity of the Human Sodium-Dependent Glucose Transporter 2 (SGLT2, SLC5A2) In Vitro
1. Cloning of an Expression Vector for Human SGLT2
The cDNA for human SGLT2 was introduced into the pcDNA4/TO vector (Invitrogen) by means of standard methods of molecular biology as described in Sambrook et al. (Molecular Cloning, A Laboratory Manual, Second Edition). […] Bases 21 to 2039 correspond to the complete coding region of human SGLT2.
2. Production of a Recombinant Cell Line with Inducible Expression of Human SGLT2
The expression vector for human SGLT2 was introduced into CHO-TREx cells (Invitrogen) by means of FuGene6 lipofection (Roche). To select single cell clones, 600 μg/ml of Zeocin (Invitrogen) was added to the cell culture medium (nutrient mixture F-12 (Ham), (Invitrogen) supplemented with 10% fetal calf serum (FBS Gold, PAA), 10 μg/ml Blasticidin S(CN Biosciences), 100 units/ml penicillin, 100 units/ml streptomycin). The functionality of the single cell clones resulting from the selection was tested via their uptake activity for radiolabeled methyl- -D-glucopyranoside. That cell clone with the highest uptake activity for methyl- -D-glucopyranoside, referred to hereinafter as CHO-TRex-hSGLT2, was selected for the further experiments and cultured further in the presence of 600 μg/ml Zeocin.
3. Measurement of the Inhibiting Action of Test Substances on the Uptake of Methyl- -D-glucopyranoside (-MDG)
CHO-TRex-hSGLT2 cells were seeded in cell culture medium in a concentration of 50 000 cells per well in Cytostar-T scintillating 96-well plates (Amersham Biosciences) and cultivated for 24 h. The expression of the recombinant human SGLT2 was induced by adding 1 μg/ml tetrazykline for a further 24 h. For -MDG uptake experiments, the cells were washed with PBS and then starved at 37° C. in starvation medium (PBS supplemented with 10% fetal calf serum) for 1 hour. […] After an incubation time of 120 min at 37° C., the reaction was stopped by adding 50 μl/well of 10 mM methyl- -D-glucopyranoside in transport assay buffer (4° C.), and the radioactivity taken up into the cells was determined in a MicroBeta Scintillation Microplate Reader (Wallac). The half-maximum inhibiting action of the test substances (IC50 value) was determined as follows:
4. […] This is the measurement in the absence of substance, measured in sodium-containing transport assay buffer.
5. […] This is the measurement in the absence of substance, measured in sodium-free transport assay buffer (140 mM choline chloride, 2 mM potassium chloride, 1 mM magnesium chloride, 1 mM calcium chloride, 10 mM HEPES/Tris, pH7.5). […]

pIC50 | Compound
7.47 | COc1ccc(Cc2ccccc2OC2OC(CO)C(F)C(O)C2O)cc1 (stereo not shown) [Example 1 of formula III]
7.06 | COc1ccc(Cc2c(OC3OC(CO)C(F)C(O)C3O)n[nH]c2C(F)(F)F)cc1 (stereo not shown) [Example 5 of formula II]
7.54 | CCc1ccc(Cc2ccccc2OC2OC(CO)C(F)C(O)C2O)cc1 (stereo not shown) [Example 20 of formula III]
6.50 | CC(C)c1[nH]nc(OC2OC(CO)C(F)C(O)C2O)c1Cc1ccc(CCCC(=O)NC(CO)(CO)CO)cc1 (stereo not shown) [Example 21 of formula I]
